Experimental data: article PMC3853718 (Journal of Translational Medicine, 2013)

System: subjects with advanced malignancies
Experiment: Phase 1 dose escalation: toxicity, safety and tolerability (DLT, MAD, RP2D, AEs)
Details: for TEAE: Abdominal distension / TEAE: Abdominal pain / TEAE: Anemia / TEAE: Asthenia / TEAE: Back pain / TEAE: Constipation / TEAE: Cough / TEAE: Decreased appetite / TEAE: Dehydration / TEAE: Diarrhea / TEAE: Dizziness / TEAE: Dyspnea / TEAE: Fatigue / TEAE: Flatulence / TEAE: Hyperbilirubinemia / TEAE: Hyperglycemia / TEAE: Hyperuricemia / TEAE: Hypokalemia / TEAE: Hypophosphatemia / TEAE: Increased ALP / TEAE: Increased ALT / TEAE: Increased AST / TEAE: Nausea / TEAE: Neutropenia / TEAE: Peripheral edema / TEAE: Pyrexia / TEAE: Subjects with any AE / TEAE: Urinary tract infection / TEAE: Vomiting / TEAE: Weight decreased: ≤ 5.08 mg/m^2 (n = 22)

SMILES: CCc1cnn2c(NCc3ccc[n+]([O-])c3)cc(N3CCCC[C@H]3CCO)nc12 [dinaciclib]
- Subjects with DLT in cycle 1 (Dose level 14 mg/m^2, 5 subjects): 2
- treatment-related AE: anemia (RP2D 12 mg/m^2, 11 subjects): 5 [45%] subjects [%]
- treatment-related AE: asthenia (RP2D 12 mg/m^2, 11 subjects): 3 [27%] subjects [%]
- treatment-related AE: fatigue (RP2D 12 mg/m^2, 11 subjects): 4 [36%] subjects [%]
- treatment-related AE: hyperuricemia (RP2D 12 mg/m^2, 11 subjects): 3 [27%] subjects [%]
- treatment-related AE: nausea (RP2D 12 mg/m^2, 11 subjects): 3 [27%] subjects [%]
- treatment-related AE: neutropenia (RP2D 12 mg/m^2, 11 subjects): 4 [36%] subjects [%]
- treatment-related AE: pyrexia (RP2D 12 mg/m^2, 11 subjects): 3 [27%] subjects [%]
- treatment-related AE: vomiting (RP2D 12 mg/m^2, 11 subjects): 3 [27%] subjects [%]
- Serious adverse events (Subject 2901, Breast carcinoma, 0.33 mg/m^2, regardless of causality): Anemia, confusion, lethargy
- Serious adverse events (Subject 2914, Ovarian epithelial carcinoma, 3.63 mg/m^2, regardless of causality): Constipation, nausea, abdominal pain, vomiting
- Serious adverse events (Subject 2915, Adenocarcinoma, 3.63 mg/m^2, regardless of causality): Hypocalcemia, hypokalemia, hypophosphatemia, coagulation time prolonged
- Serious adverse events (Subject 2919, Colon cancer, 3.63 mg/m^2, regardless of causality): Back pain, chest pain, dyspnea
- Serious adverse events (Subject 2920, Melanoma, 3.63 mg/m^2, regardless of causality): Cholelithiasis, liver disorder
- Serious adverse events (Subject 2922, Ovarian epithelial cancer, 3.63 mg/m^2, regardless of causality): Intestinal ischemia, pericardial effusion
- Serious adverse events (Subject 2926, Pelvic sarcoma, 7.11 mg/m^2, regardless of causality): Deep vein thrombosis, anemia
- Serious adverse events (Subject 2927, Gastric adenocarcinoma, 7.11 mg/m^2, regardless of causality): Vomiting, aspiration
- Serious adverse events (Subject 2928, Gastrointestinal stromal tumor, 7.11 mg/m^2, regardless of causality): Gastric ulcer, hematemesis, asthenia, sepsis, dyspnea, mental status changes, overdose
- Serious adverse events (Subject 2930, SCLC, 7.11 mg/m^2, regardless of causality): Cardiac arrest
- Serious adverse events (Subject 2931, Esophageal carcinoma, 7.11 mg/m^2, regardless of causality): Esophageal obstruction, pyrexia, hemorrhagic anemia
- Serious adverse events (Subject 2937, Adenoid cyst carcinoma, 14 mg/m^2, regardless of causality): Pneumothorax, cardiac tamponade, pneumoperitoneum, intestinal perforation, peritonitis, sepsis
- Serious adverse events (Subject 2940, Breast carcinoma, 14 mg/m^2, regardless of causality): Death
- Serious adverse events (Subject 2945, NSCLC, 12 mg/m^2, regardless of causality): Cerebrovascular accident
- Serious adverse events (Subject 2947, Colorectal cancer, 12 mg/m^2, regardless of causality): Pelvic abscess, septic shock, deep vein thrombosis
- Serious adverse events (Subject 2950, Colon cancer, 12 mg/m^2, regardless of causality): Deep vein thrombosis, bradycardia, respiratory failure, syncope, tumor lysis syndrome
- Serious adverse events (Subject 2951, Ovarian metastatic cancer, 12 mg/m^2, regardless of causality): Anemia, neutropenic sepsis, sepsis, gastrointestinal hemorrhage, diarrhea, bacterial infection, neutropenia, thrombocytopenia
- SAE: anemia (all dose levels): 3 (6%) subjects (%)
- SAE: deep vein thrombosis (all dose levels): 3 (6%) subjects (%)
- SAE: sepsis (all dose levels): 3 (6%) subjects (%)
- grade 3 or 4 treatment-related AE: hyperuricemia (all dose levels): 3 [6%] subjects [%]
- grade 3 or 4 treatment-related AE: neutropenia (all dose levels): 5 [10%] subjects [%]
- subjects with AEs leading to discontinuation of treatment (all dose levels): 6 (13%) subjects (%)
- subjects with grade 3 or 4 treatment-related AEs (all dose levels): 16 subjects
- subjects with serious AEs (SAEs) (all dose levels): 17 (33%) subjects (%)
- treatment-related AE: anemia (all dose levels): 10 [21%] subjects [%]
- treatment-related AE: fatigue (all dose levels): 7 [15%] subjects [%]
- treatment-related AE: nausea (all dose levels): 16 [33%] subjects [%]
- treatment-related AE: neutropenia (all dose levels): 8 [17%] subjects [%]
- treatment-related AE: vomiting (all dose levels): 8 [17%] subjects [%]
- subjects reporting treatment-emergent adverse events (all dose levels, 48 treated): 47 (98%) subjects (%)
- subjects with AEs possibly related to study drug (all dose levels, 48 treated): 35 (73%) subjects (%)
- instances of grade 2 toxicity (at 1.32 mg/m^2): 2
- deaths due to disease progression (of 52 enrolled, considered unlikely related to study treatment): 7 [13%] subjects [%]
- deaths due to AEs (of 52 enrolled, deemed unlikely related to dinaciclib, one subject never treated): 4 (8%) subjects (%)
- subjects who died during this study (of the 52 subjects enrolled): 21%
- TEAE: Abdominal distension (All grades): 3 (14) n (%)
- TEAE: Abdominal pain (All grades): 4 (18) n (%)
- TEAE: Anemia (All grades): 8 (36) n (%)
- TEAE: Asthenia (All grades): 4 (18) n (%)
- TEAE: Back pain (All grades): 8 (36) n (%)
- TEAE: Constipation (All grades): 5 (23) n (%)
- TEAE: Cough (All grades): 3 (14) n (%)
- TEAE: Decreased appetite (All grades): 9 (41) n (%)
- TEAE: Dehydration (All grades): 8 (36) n (%)
- TEAE: Diarrhea (All grades): 3 (14) n (%)
- TEAE: Dizziness (All grades): 0 n (%)
- TEAE: Dyspnea (All grades): 3 (14) n (%)
- TEAE: Fatigue (All grades): 7 (32) n (%)
- TEAE: Flatulence (All grades): 3 (14) n (%)
- TEAE: Hyperbilirubinemia (All grades): 5 (23) n (%)
- TEAE: Hyperglycemia (All grades): 1 (5) n (%)
- TEAE: Hyperuricemia (All grades): 1 (5) n (%)
- TEAE: Hypokalemia (All grades): 2 (9) n (%)
- TEAE: Hypophosphatemia (All grades): 4 (18) n (%)
- TEAE: Increased ALP (All grades): 3 (14) n (%)
- TEAE: Increased ALT (All grades): 3 (14) n (%)
- TEAE: Increased AST (All grades): 3 (14) n (%)
- TEAE: Nausea (All grades): 6 (27) n (%)
- TEAE: Neutropenia (All grades): 0 n (%)
- TEAE: Peripheral edema (All grades): 3 (14) n (%)
- TEAE: Pyrexia (All grades): 3 (14) n (%)
- TEAE: Subjects with any AE (All grades): 21 (95) n (%)
- TEAE: Urinary tract infection (All grades): 5 (23) n (%)
- TEAE: Vomiting (All grades): 2 (9) n (%)
- TEAE: Weight decreased (All grades): 4 (18) n (%)
- TEAE: Abdominal distension (Grade 3–4): 0 n (%)
- TEAE: Abdominal pain (Grade 3–4): 1 (5) n (%)
- TEAE: Anemia (Grade 3–4): 1 (5) n (%)
- TEAE: Asthenia (Grade 3–4): 2 (9) n (%)
- TEAE: Back pain (Grade 3–4): 3 (14) n (%)
- TEAE: Constipation (Grade 3–4): 0 n (%)
- TEAE: Cough (Grade 3–4): 0 n (%)
- TEAE: Decreased appetite (Grade 3–4): 0 n (%)
- TEAE: Dehydration (Grade 3–4): 0 n (%)
- TEAE: Diarrhea (Grade 3–4): 0 n (%)
- TEAE: Dizziness (Grade 3–4): 0 n (%)
- TEAE: Dyspnea (Grade 3–4): 1 (5) n (%)
- TEAE: Fatigue (Grade 3–4): 2 (9) n (%)
- TEAE: Flatulence (Grade 3–4): 0 n (%)
- TEAE: Hyperbilirubinemia (Grade 3–4): 3 (14) n (%)
- TEAE: Hyperglycemia (Grade 3–4): 0 n (%)
- TEAE: Hyperuricemia (Grade 3–4): 1 (5) n (%)
- TEAE: Hypokalemia (Grade 3–4): 1 (5) n (%)
- TEAE: Hypophosphatemia (Grade 3–4): 3 (14) n (%)
- TEAE: Increased ALP (Grade 3–4): 1 (5) n (%)
- TEAE: Increased ALT (Grade 3–4): 1 (5) n (%)
- TEAE: Increased AST (Grade 3–4): 1 (5) n (%)
- TEAE: Nausea (Grade 3–4): 0 n (%)
- TEAE: Neutropenia (Grade 3–4): 0 n (%)
- TEAE: Peripheral edema (Grade 3–4): 0 n (%)
- TEAE: Pyrexia (Grade 3–4): 0 n (%)
- TEAE: Subjects with any AE (Grade 3–4): 11 (50) n (%)
- TEAE: Urinary tract infection (Grade 3–4): 0 n (%)
- TEAE: Vomiting (Grade 3–4): 1 (5) n (%)
- TEAE: Weight decreased (Grade 3–4): 0 n (%)
